Measurements: patent EP3095787A1, “[…] ACTIVE COMPOUNDS AS DAG-LIPASE INHIBITORS” (Universiteit Leiden, priority 2015, dated 2016)
Entries after “also recorded” stand apart in the source; their conditions may differ.

Columns and labels:
[1] = system: serine hydrolases; test: Comparative and competitive gel ABPP selectivity in mouse brain membrane proteome (TAMRA-FP and MB064); assay type: biochemical; details: 10 µM; TAMRA-FP 500 nM and MB064 250 nM
Method: For gel based ABPP experiments mouse brain proteome (2.0 mg/mL, 20 µL) was preincubated for 30 min with vehicle (DMSO) or compound to be tested in 0.5 µL DMSO at rt. And subsequently treated with 500 nM (final concentration) TAMRA-FP (TAMRA-FP was bought at Thermo Fischer) for 15 minutes at rt. The reactions were quenched with 10 µL standard 3 x SDS page sample buffer. The samples were directly loaded and resolved on SDS page gel (10 % acrylamide). The gels were scanned with a ChemiDoc MP sytem (Biorad, Cy 3 settings, 605/50 filter) and analyzed using Image Lab 4.1.
To investigate the selectivity of compound 25 in the mouse brain proteome comparative and competitive ABPP was used with a broad-spectrum FP-based probe (TAMRA-FP) and the tailored DAGL-α ABP MB064. As a reference the widely used β-lactone-based DAGL-inhibitors THL and OMDM-188, two broad-spectrum covalent and irreversible serine hydrolase inhibitors, were firstly tested.

[2] = molecular target: T1, hDAGL-β (Homo sapiens, UniProt Q8NCG7); test: Biochemical assay with para-nitrophenylbutyrate as surrogate substrate on human DAGL-β; details: n=4
T1 sequence (Q8NCG7 1-672): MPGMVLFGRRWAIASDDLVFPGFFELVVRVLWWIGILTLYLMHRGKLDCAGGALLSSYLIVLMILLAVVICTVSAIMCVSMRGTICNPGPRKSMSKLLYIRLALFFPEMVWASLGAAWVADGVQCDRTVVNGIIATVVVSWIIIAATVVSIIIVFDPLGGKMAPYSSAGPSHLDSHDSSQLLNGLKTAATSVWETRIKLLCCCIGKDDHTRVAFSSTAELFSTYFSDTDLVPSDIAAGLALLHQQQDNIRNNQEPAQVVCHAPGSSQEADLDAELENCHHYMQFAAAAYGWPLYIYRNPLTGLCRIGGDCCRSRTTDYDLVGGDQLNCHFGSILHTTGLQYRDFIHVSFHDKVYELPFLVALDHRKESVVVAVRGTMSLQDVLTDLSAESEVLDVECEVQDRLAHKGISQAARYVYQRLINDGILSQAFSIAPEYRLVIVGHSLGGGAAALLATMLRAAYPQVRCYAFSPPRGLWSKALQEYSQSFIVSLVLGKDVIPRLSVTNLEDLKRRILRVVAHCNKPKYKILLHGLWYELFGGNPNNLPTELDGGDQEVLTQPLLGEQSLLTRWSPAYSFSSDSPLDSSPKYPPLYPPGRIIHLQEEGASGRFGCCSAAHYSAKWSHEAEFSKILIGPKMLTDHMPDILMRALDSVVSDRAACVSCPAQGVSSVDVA

[3] = molecular target: T2, hDAGL-α (Homo sapiens, UniProt Q9Y4D2); test: Mode of action (reversibility) experiment: size exclusion chromatography, then MB064 labeling; assay type: biochemical; parameters: expressed in transfected cells; details: pre-incubation at IC80 concentration; remaining activity visualized with MB064; n=3
T2 sequence (Q9Y4D2 1-1042): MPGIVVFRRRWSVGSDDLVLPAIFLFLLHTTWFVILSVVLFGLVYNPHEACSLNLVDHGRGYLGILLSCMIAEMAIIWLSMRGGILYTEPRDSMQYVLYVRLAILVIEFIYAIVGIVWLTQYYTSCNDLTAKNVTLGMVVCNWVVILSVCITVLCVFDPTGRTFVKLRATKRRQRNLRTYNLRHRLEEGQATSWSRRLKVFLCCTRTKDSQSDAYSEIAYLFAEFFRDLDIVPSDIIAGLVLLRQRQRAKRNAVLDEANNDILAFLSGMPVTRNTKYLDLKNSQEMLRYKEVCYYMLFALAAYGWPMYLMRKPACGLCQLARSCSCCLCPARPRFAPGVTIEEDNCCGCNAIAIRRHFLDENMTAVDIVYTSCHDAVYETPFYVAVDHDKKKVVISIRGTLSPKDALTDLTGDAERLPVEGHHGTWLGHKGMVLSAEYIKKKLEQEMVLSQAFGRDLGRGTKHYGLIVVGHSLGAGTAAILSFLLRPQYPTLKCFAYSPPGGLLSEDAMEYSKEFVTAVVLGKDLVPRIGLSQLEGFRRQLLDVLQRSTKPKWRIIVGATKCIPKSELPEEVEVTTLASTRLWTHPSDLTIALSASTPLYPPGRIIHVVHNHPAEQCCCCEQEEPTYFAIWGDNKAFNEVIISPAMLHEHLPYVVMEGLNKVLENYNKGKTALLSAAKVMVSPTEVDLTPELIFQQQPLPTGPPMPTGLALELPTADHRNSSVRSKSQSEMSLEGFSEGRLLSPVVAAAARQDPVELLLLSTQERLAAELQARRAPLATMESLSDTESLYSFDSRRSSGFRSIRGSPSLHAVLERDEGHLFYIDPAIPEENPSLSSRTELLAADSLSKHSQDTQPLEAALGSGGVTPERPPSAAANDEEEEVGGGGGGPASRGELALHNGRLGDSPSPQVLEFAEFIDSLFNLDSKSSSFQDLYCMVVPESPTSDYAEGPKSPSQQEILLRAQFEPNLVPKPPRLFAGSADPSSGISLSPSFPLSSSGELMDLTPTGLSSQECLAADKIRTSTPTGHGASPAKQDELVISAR
Method: To determine the mode of action (reversible versus irreversible) of the inventive compounds, an experiment in which human DAGL-α membranes were pre-incubated at the IC80 concentration of compound 25 or the irreversible DAGL inhibitor KT-109 was performed.

- IC50 [2]: 7.94 nM
- recovery of DAGL-α activity after size exclusion chromatography [3]: reversibility
SMILES: Cc1ccc(-c2cnc3nc(C(=O)CCCCCc4ccccc4)oc3c2)cc1 [Compound 25, 1-(6-(p-Tolyl)oxazolo[4,5-b]pyridin-2-yl)-6-phenylhexan-1-one]
- labeling of other bands (selectivity) [1]: excellent selectivity; also recorded: did not inhibit labeling of any other band
